Assays:
[1] = tested on: LNCap; experiment: In vitro cell growth assay (MTS), LNCap; format: cell-based; settings: LNCaP, 72 h, human prostate line, three days after drug treatment
Protocol: (§1) The cell lines used were human prostate lines LNCap and PC3MM2, human breast lines MDA468 and MCF7, human renal line HTB44 (A498), human colon line HCT116, and human ovarian line OVCAR3. Cells were plated in 96-well culture plates. One day following plating, the inhibitors were added to cells. Three days after drug treatment, viable cell densities were determined by metabolic conversion (by viable cells) of the dye MTS, a well-established cell proliferation assay. The assays were performed using an assay kit purchased from Promega Corp. (Madison, Wis.) following the protocol supplied with the kit. The MTS assay results were read in a 96-well plate reader by measuring absorbance at 490 nm. The effect of each treatment was calculated as percent of control growth relative to the vehicle-treated cells grown in the same culture plate.

[2] = target: PI3K-alpha (Homo sapiens, UniProt P42336); experiment: PI3K-alpha fluorescence polarization assay; format: biochemical; settings: 20 μM PIP2, 25 μM ATP; read-out: PI3Kα IC50
Protocol: The reaction buffer was 20 mM HEPES, pH 7.5, 2 mM MgCl2, 0.05% CHAPS; and 0.01% βME (added fresh). The stop/detection buffer was 100 mM HEPES, pH 7.5, 4 mM EDTA, 0.05% CHAPS; ATP 20 mM in water; PIP2 (diC8, Echelon, Salt Lake City Utah cat #P-4508) 1 mM in water (MW=856.5). The GST-GRP was 1.75 mg/mL or 1.4 mg/mL in 10% glycerol. The red detector (TAMRA) was 2.5 μM. Nunc 384-well black polypropylene fluorescent plates were used for PI3K assays.
The assay is run by placing 5 μL of diluted enzyme per well, then 5 μL of diluted compound (or 9.5 μL enzyme then 0.5 μL compound in DMSO) is added and mixed. Then, 10 μL substrate is added to start the reaction. The samples are incubated 30-60 minutes, then the reaction is stopped by adding 20 μL stop/detector mix. PI3K is diluted with reaction buffer (e.g., 5 μL or 7.5 μL PI3K into 620 μL reaction buffer), and 5 μL of diluted enzyme is used per well. A 5 μL portion of reaction buffer or of drug diluted in buffer (e.g., 4 μL/100 so final DMSO is 1% in reaction) is added to each. Pipetting up and down mixes the samples. Alternatively, the enzyme can be diluted to 1215 μL. In this case 9.8 μL is added per well and 0.2 μL compound is added in DMSO.
To prepare 1 mL of substrate solution, 955 μL reaction buffer, 40 μL PIP2, and 2.5 μL ATP are mixed. 10 μL of substrate is added to each well to start the reaction. […] The stop/detector mix is prepared by mixing 4 μL red detector and 1.6 μL or 2.0 μL GST-GRP with 1 mL stop buffer, which results in 10 nM probe and 70 nM GST-GRP. 20 μL of the stop/detector mix is added to each well to stop the reaction. The plates are read after 30-90 minutes keeping the red probe solutions dark. For the zero time point, stop/detector mix is added to the enzyme just before adding substrate. For an extra control, stop/detector mix is added to buffer (no enzyme) and substrate or to just buffer (no substrate). […] The recommended reaction has 0.06 μL per 20 μL (0.015 μg/20 μL) or 0.01125 μg/15 μL or 0.75 μg/mL.
Plates are read on machines with filters for TAMRA. The units are mP with no enzyme controls reading app 190-220 mP units. Fully active enzyme reduces fluorescence polarization down to 70-100 mP after 30 minutes. An active compound raises the mP values halfway to control or to 120-150 mP units.

[3] = tested on: MDA468; experiment: In vitro cell growth assay (MTS), MDA468; format: cell-based; settings: 72 h, human breast line MDA468, three days after drug treatment, read-out: MDA IC50
Protocol: as §1

[4] = target: mTOR (Homo sapiens, UniProt P42345); experiment: mTOR enzyme assay (DELFIA, purified FLAG-TOR, His6-S6K substrate); format: biochemical; design: FLAG; settings: 100 μM ATP, 2 hours
Chain of mTOR (P42345 1360-2549 limits assumed): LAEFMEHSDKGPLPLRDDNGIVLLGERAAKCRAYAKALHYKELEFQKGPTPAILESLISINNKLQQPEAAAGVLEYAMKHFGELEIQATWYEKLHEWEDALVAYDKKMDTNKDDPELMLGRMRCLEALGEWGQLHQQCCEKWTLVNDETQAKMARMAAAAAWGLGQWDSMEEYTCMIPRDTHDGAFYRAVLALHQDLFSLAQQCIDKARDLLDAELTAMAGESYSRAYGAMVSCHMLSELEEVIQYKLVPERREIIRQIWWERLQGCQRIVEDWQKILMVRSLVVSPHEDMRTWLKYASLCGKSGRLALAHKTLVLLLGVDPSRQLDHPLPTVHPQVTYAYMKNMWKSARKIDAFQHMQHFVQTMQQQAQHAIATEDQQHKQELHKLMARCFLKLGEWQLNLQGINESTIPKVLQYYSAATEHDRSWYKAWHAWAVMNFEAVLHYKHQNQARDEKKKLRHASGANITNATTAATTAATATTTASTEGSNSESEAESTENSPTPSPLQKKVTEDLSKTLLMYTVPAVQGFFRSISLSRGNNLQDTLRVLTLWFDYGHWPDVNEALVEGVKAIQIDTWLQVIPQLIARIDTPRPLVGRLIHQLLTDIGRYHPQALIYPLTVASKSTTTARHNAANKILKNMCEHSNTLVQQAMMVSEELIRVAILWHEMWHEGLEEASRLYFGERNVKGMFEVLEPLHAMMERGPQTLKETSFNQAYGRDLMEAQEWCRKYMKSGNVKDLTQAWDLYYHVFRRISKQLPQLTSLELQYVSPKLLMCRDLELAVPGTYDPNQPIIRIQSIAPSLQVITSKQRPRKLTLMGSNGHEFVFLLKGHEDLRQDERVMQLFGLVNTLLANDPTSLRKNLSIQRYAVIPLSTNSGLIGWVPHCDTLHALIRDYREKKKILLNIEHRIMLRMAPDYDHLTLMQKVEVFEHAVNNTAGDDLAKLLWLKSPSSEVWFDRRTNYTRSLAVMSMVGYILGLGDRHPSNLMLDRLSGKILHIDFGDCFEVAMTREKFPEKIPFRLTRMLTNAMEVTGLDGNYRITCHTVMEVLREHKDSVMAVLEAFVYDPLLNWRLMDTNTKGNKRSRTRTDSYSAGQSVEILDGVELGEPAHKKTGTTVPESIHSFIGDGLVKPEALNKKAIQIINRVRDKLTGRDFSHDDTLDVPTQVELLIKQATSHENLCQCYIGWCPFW

Chain of PI3K-alpha (P42336 whole entry, species assumed): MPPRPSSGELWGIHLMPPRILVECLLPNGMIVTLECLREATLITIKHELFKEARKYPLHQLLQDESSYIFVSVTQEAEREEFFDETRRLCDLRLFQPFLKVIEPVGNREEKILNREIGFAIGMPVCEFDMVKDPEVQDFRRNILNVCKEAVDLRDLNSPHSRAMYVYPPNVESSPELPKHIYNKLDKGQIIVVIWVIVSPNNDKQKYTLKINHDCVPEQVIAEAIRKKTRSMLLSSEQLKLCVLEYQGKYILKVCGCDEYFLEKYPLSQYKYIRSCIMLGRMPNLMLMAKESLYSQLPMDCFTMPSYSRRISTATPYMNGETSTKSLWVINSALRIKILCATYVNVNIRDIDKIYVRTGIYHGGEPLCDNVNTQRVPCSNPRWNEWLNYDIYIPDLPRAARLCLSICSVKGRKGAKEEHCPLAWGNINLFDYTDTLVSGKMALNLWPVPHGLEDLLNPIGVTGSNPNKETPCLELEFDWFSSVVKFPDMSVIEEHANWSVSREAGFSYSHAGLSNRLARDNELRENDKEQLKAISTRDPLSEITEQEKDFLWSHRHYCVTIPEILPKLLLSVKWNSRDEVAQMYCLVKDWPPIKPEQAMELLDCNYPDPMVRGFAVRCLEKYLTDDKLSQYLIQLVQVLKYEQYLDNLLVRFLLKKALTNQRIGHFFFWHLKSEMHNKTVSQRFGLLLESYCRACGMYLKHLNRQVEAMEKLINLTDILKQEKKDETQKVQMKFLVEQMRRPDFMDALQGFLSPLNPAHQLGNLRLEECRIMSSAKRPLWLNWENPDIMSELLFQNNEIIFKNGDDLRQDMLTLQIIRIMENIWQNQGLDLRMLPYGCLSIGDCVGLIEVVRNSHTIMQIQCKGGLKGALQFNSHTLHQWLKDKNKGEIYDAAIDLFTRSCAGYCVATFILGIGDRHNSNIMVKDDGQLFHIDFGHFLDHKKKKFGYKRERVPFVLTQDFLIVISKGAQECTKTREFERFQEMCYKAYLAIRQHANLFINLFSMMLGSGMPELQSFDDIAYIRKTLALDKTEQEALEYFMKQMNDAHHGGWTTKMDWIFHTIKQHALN
Chain of PI3K-alpha (P27986 whole entry partner, species assumed): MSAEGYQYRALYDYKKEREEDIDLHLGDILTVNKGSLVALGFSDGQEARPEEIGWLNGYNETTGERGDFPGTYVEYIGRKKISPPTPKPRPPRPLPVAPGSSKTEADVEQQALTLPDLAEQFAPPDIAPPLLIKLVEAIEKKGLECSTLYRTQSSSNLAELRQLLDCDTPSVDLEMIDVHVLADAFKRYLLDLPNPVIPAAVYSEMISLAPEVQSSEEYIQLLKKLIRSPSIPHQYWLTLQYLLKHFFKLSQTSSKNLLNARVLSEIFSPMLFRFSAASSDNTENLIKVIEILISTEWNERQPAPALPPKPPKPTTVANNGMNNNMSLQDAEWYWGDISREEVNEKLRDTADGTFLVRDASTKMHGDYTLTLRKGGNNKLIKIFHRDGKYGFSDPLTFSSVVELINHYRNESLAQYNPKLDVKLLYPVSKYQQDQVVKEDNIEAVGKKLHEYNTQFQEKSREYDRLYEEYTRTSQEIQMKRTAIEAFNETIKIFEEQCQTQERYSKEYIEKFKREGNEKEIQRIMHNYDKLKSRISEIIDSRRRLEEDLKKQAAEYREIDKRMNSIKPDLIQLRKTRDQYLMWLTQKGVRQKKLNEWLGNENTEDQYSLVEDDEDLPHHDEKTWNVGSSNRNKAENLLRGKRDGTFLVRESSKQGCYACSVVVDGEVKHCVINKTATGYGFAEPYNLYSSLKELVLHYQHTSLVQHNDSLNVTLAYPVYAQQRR

IC50 [1] [nM]	IC50 [2] [nM]	IC50 [4] [nM]	Compound	IC50 [3] [nM]
13.4	212	4.17	CC(C)Nc1cc(N2CC3CCC(C2)O3)nc(-c2ccc(NC(=O)Nc3ccc(N4CCN(C)CC4)cc3)cc2)n1 [1-(4-{4-[(1-methylethyl)amino]-6-(8-oxa-3-azabicyclo[3.2.1]oct-3-yl)pyrimidin-2-yl}phenyl)-3-[4-(4-methylpiperazin-1-yl)phenyl]urea]	50
51	140	0.785	CC(C)Nc1cc(N2CC3CCC(C2)O3)nc(-c2ccc(NC(=O)Nc3ccncc3)cc2)n1 [1-(4-{4-[(1-methylethyl)amino]-6-(8-oxa-3-azabicyclo[3.2.1]oct-3-yl)pyrimidin-2-yl}phenyl)-3-pyridin-4-ylurea]	310
90	242	3	CS(=O)(=O)Cc1cc(N2CC3CCC(C2)O3)nc(-c2ccc(NC(=O)Nc3ccc(N4CCNCC4)cc3)cc2)n1 [1-(4-{4-[(methylsulfonyl)methyl]-6-(8-oxa-3-azabicyclo[3.2.1]oct-3-yl)pyrimidin-2-yl}phenyl)-3-(4-piperazin-1-ylphenyl)urea]	110
0.9	172	3	CS(=O)(=O)Cc1cc(N2CC3CCC(C2)O3)nc(-c2ccc(NC(=O)Nc3ccccc3)cc2)n1 [1-(4-{4-[(methylsulfonyl)methyl]-6-(8-oxa-3-azabicyclo[3.2.1]oct-3-yl)pyrimidin-2-yl}phenyl)-3-phenylurea]	9
195	341	1.02	CS(=O)(=O)Cc1cc(N2CC3CCC(C2)O3)nc(-c2ccc(NC(=O)Nc3cccnc3)cc2)n1 [1-(4-{4-[(methylsulfonyl)methyl]-6-(8-oxa-3-azabicyclo[3.2.1]oct-3-yl)pyrimidin-2-yl}phenyl)-3-pyridin-3-ylurea]	170
150	236	0.825	CS(=O)(=O)Cc1cc(N2CC3CCC(C2)O3)nc(-c2ccc(NC(=O)Nc3ccncc3)cc2)n1 [1-(4-{4-[(methylsulfonyl)methyl]-6-(8-oxa-3-azabicyclo[3.2.1]oct-3-yl)pyrimidin-2-yl}phenyl)-3-pyridin-4-ylurea]	75
40	588	9.55	CN1CCN(c2ccc(NC(=O)Nc3ccc(-c4cc(N5CC6CCC(C5)O6)nc(N5CC6CCC(C5)O6)n4)cc3)cc2)CC1 [1-[4-(2,6-di-8-oxa-3-azabicyclo[3.2.1]oct-3-ylpyrimidin-4-yl)phenyl]-3-[4-(4-methylpiperazin-1-yl)phenyl]urea]	160
1600	2490	20.5	CNC(=O)Nc1ccc(-c2cc(N3CC4CCC(C3)O4)nc(N3CC4CCC(C3)O4)n2)cc1 [1-[4-(2,6-di-8-oxa-3-azabicyclo[3.2.1]oct-3-ylpyrimidin-4-yl)phenyl]-3-methylurea]	4200
130	137	2.45	O=C(Nc1ccncc1)Nc1ccc(-c2cc(N3CC4CCC(C3)O4)nc(N3CC4CCC(C3)O4)n2)cc1 [1-[4-(2,6-di-8-oxa-3-azabicyclo[3.2.1]oct-3-ylpyrimidin-4-yl)phenyl]-3-pyridin-4-ylurea]	380
2800	2440	195	CCN(C(=O)Nc1ccc(N2CCN(C)CC2)cc1)c1ccc(-c2nc(N3CC4CCC(C3)O4)cc(N3CC4CCC(C3)O4)n2)cc1 [1-[4-(4,6-di-8-oxa-3-azabicyclo[3.2.1]oct-3-ylpyrimidin-2-yl)phenyl]-1-ethyl-3-[4-(4-methylpiperazin-1-yl)phenyl]urea]	7000
5800	2260	200	CCN(C(=O)Nc1ccncc1)c1ccc(-c2nc(N3CC4CCC(C3)O4)cc(N3CC4CCC(C3)O4)n2)cc1 [1-[4-(4,6-di-8-oxa-3-azabicyclo[3.2.1]oct-3-ylpyrimidin-2-yl)phenyl]-1-ethyl-3-pyridin-4-ylurea]	20000
2.4	328	2.55	CN1CCN(c2ccc(NC(=O)Nc3ccc(-c4nc(N5CC6CCC(C5)O6)cc(N5CC6CCC(C5)O6)n4)cc3)cc2)CC1 [1-[4-(4,6-di-8-oxa-3-azabicyclo[3.2.1]oct-3-ylpyrimidin-2-yl)phenyl]-3-[4-(4-methylpiperazin-1-yl)phenyl]urea]	19
250	1080	7.05	CNC(=O)Nc1ccc(-c2nc(N3CC4CCC(C3)O4)cc(N3CC4CCC(C3)O4)n2)cc1 [1-[4-(4,6-di-8-oxa-3-azabicyclo[3.2.1]oct-3-ylpyrimidin-2-yl)phenyl]-3-methylurea]	1000
28	125	0.56	O=C(Nc1ccncc1)Nc1ccc(-c2nc(N3CC4CCC(C3)O4)cc(N3CC4CCC(C3)O4)n2)cc1 [1-[4-(4,6-di-8-oxa-3-azabicyclo[3.2.1]oct-3-ylpyrimidin-2-yl)phenyl]-3-pyridin-4-ylurea]	50
15	343	2.95	CN1CCN(c2ccc(NC(=O)Nc3ccc(-c4nc(CS(C)(=O)=O)cc(N5CC6CCC(C5)O6)n4)cc3)cc2)CC1 [1-[4-(4-methylpiperazin-1-yl)phenyl]-3-(4-{4-[(methylsulfonyl)methyl]-6-(8-oxa-3-azabicyclo[3.2.1]oct-3-yl)pyrimidin-2-yl}phenyl)urea]	30
50	440	11	CN1CCN(c2ccc(NC(=O)Nc3ccc(-c4nc(N5CC6CCC(C5)O6)cc(C(F)(F)F)n4)cc3)cc2)CC1 [1-[4-(4-methylpiperazin-1-yl)phenyl]-3-{4-[4-(8-oxa-3-azabicyclo[3.2.1]oct-3-yl)-6-(trifluoromethyl)pyrimidin-2-yl]phenyl}urea]	190

Compound	IC50 [1] [nM]	IC50 [2] [nM]	IC50 [4] [nM]	IC50 [3] [nM]
CN1CCN(c2ccc(NC(=O)Nc3ccc(-c4nc(N5C6CCC5COC6)cc(N5C6CCC5COC6)n4)cc3)cc2)CC1 [1-[4-(4,6-di-3-oxa-8-azabicyclo[3.2.1]oct-8-ylpyrimidin-2-yl)phenyl]-3-[4-(4-methylpiperazin-1-yl)phenyl]urea]	≤ 0.8	1140	1.7	0.8
O=C(Nc1ccncc1)Nc1ccc(-c2nc(N3C4CCC3COC4)cc(N3C4CCC3COC4)n2)cc1 [1-[4-(4,6-di-3-oxa-8-azabicyclo[3.2.1]oct-8-ylpyrimidin-2-yl)phenyl]-3-pyridin-4-ylurea]	3	954	0.655	19
CN1CCN(C(=O)c2ccc(NC(=O)Nc3ccc(-c4nc(N5C6CCC5COC6)cc(N5C6CCC5COC6)n4)cc3)cc2)CC1 [1-[4-(4,6-di-3-oxa-8-azabicyclo[3.2.1]oct-8-ylpyrimidin-2-yl)phenyl]-3-{4-[(4-methylpiperazin-1-yl)carbonyl]phenyl}urea]	≤ 0.8	129	0.94	0.8
CN1CCN(Cc2ccc(NC(=O)Nc3ccc(-c4nc(N5C6CCC5COC6)cc(N5C6CCC5COC6)n4)cc3)cc2)CC1 [1-[4-(4,6-di-3-oxa-8-azabicyclo[3.2.1]oct-8-ylpyrimidin-2-yl)phenyl]-3-{4-[(4-methylpiperazin-1-yl)methyl]phenyl}urea]	≤ 0.8	1950	2.25	4

Reference: US8835429B2, “Pyrimidine compounds, their use as mTOR kinase and Pl3 kinase inhibitors, and their syntheses” (Wyeth LLC, priority 2009, dated 2014)
